Assay results taken from US12312352B2, “Use of a DPP-4 inhibitor in SIRS and/or sepsis” (Boehringer ingelheim International GmbH, priority 2012, dated 2025).

What was measured:
septic rats = assay: Survival of septic rats (LPS 10 mg/kg i.p.) with and without linagliptin treatment; format: in vivo, female Wistar rats; conditions: 24 hours after LPS 10 mg/kg i.p.; linagliptin diet from 2 days before LPS; LPS alone about 28%; p=0.015 LPS vs. LPS+Linagliptin; preliminary data
Protocol: Animals are injected at day 2 with 10 mg/kg LPS (lipopolysaccharide) i.p. and observed for 4 additional days.
It should be noted that the survival curve only represents preliminary data (“pseudo Kaplan-Meier-curve”) since the exact time point of death of the rats is not assessed. The female Wistar rats are injected with LPS in the morning, monitored during the day and transferred back to the stable in the evening. Deaths are registered in the morning of the next day.

[1] = Mean plasma concentration of linagliptin in rats on linagliptin diet; format: in vivo; conditions: diet containing 0.083 mg/kg linagliptin
septic animals = conditions: cited from earlier work
[2] = Safety and tolerability in people with type 2 diabetes
septic mice = assay: Survival in experimental sepsis, first study: LPS 20 mg/kg i.p. on Day 6 of 7 days treatment; conditions: linagliptin 5 mg/kg/d in drinking water (p=0.067), liraglutide 0.2 mg/kg/d s.c. injection (p=0.005), placebo/LPS 100% die within 48 h
[3] = Pharmacokinetics of BI 1356 after multiple oral doses (1, 2.5, 5 or 10 mg once daily for 12 days) in patients with type 2 diabetes

CC#CCn1c(N2CCC[C@@H](N)C2)nc2c1c(=O)n(Cc1nc(C)c3ccccc3n1)c(=O)n2C [linagliptin]
mortality (septic rats): No mortality | mean plasma concentration [1]: 50 to 150 nM | vascular dysfunction, vascular inflammation and aortic, cardiac and blood oxidative stress (septic animals; experimental sepsis model): improves vascular dysfunction and vascular inflammation as well as aortic, cardiac, and blood oxidative stress | immune cell infiltration into the vascular tissue (septic animals; septic animals, previous studies): prevention of immune cell infiltration into the vascular tissue | safety and tolerability [2]: placebo-like | survival vs placebo/LPS group (septic mice): trend for a higher survival rate | form and route of excretion ([3]; human, in vivo): primarily excreted unchanged via the bile | main organ of excretion ([3]; therapeutic oral dose levels): mainly excreted via the liver
